Data from patent US9975896B2, “Inhibitors of transcription factors and uses thereof” (Dana-Farber Cancer Institute, Inc., priority 2013, dated 2018).
Read-outs that look alike come from different tables or passages of the source.

What was measured:
BRD4 = BRD4 (Homo sapiens, UniProt O60885); test: In vitro AlphaScreen protein binding assay (competition with biotinylated JQ1); settings: for IC50: AlphaScreen
Procedure: Assays were performed with minor modifications from the manufacturer's protocol (PerkinElmer, USA). All reagents were diluted in 50 mM HEPES, 150 mM NaCl, 0.1% w/v BSA, and 0.01% w/v Tween® 20 at pH 7.5 and allowed to equilibrate to room temperature prior to addition to plates. After addition of Alpha beads to master solutions, all subsequent steps were performed in low light conditions. […] After a 1000-rpm spin-down for 1 minute, 100 nL of the solutions of compounds of the invention in DMSO from stock plates were added by pin transfer using a Janus Workstation (PerkinElmer, USA). The streptavidin-coated donor beads (25 μg/ml final) were added as with previous solution in a 2×, 10 μL volume. Following this addition, the plates were sealed with foil to block light exposure and to prevent evaporation. The plates were spun down again at 1000 rpm for 1 minute. Next, the plates were incubated in the room with the plate reader (for temperature equilibration) for 1 hour prior to reading the assay. Signal is stable for up to 3 hours after donor bead addition.

TRIM33(PHD Bromo.) = biological target: T1, TRIM33(PHD Bromo.) (Homo sapiens, UniProt Q9UPN9); test: BromoScan selectivity panel (Kd); assay type: binding
T1 construct: TRIM33(PHD, Bromo.); TRIM33(PHD Bromo.); fused on or other part: The vendor panel's detection tag or display handle
T1 sequence (Q9UPN9 1-1127): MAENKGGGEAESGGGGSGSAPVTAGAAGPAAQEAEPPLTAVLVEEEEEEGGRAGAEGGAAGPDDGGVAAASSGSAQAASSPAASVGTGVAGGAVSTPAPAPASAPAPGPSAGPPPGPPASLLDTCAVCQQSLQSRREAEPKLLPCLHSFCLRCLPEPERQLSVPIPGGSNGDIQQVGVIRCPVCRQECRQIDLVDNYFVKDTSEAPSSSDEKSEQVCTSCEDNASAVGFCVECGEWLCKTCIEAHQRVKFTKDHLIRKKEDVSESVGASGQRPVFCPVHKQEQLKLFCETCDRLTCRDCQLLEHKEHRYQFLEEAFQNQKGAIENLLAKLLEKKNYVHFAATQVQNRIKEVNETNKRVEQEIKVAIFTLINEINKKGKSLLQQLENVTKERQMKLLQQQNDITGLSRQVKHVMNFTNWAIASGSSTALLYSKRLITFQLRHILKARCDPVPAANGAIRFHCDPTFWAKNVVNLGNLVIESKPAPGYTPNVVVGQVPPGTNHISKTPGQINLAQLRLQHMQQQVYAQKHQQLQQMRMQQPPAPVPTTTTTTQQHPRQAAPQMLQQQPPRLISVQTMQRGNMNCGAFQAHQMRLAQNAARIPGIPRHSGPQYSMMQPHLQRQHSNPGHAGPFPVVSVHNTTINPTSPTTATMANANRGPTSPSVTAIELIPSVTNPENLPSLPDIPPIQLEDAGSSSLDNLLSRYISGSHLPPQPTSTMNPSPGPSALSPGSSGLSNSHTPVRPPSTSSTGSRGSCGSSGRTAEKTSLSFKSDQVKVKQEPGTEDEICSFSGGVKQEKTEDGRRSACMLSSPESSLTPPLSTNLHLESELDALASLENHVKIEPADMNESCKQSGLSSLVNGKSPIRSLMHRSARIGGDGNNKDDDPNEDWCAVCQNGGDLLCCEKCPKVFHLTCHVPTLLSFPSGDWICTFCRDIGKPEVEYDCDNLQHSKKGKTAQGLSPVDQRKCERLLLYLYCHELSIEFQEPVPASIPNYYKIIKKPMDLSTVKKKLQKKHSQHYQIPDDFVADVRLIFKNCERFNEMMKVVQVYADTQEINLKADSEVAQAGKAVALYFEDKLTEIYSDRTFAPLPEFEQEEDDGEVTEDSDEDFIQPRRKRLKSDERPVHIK

FALZ = FALZ (Homo sapiens, UniProt Q12830); test: BromoScan selectivity panel (Kd); assay type: binding
BRD2(1) = biological target: T2, BRD2(1) (Homo sapiens, UniProt P25440); test: BromoScan selectivity panel (Kd); assay type: binding
T2 construct: the bromodomain-containing protein is BRD2(1)

PERM1(2) = biological target: T3, PERM1(2) (Homo sapiens, UniProt Q86U86); test: BromoScan selectivity panel (Kd); assay type: binding
T3 construct: PERM1(2)

BRDT(2) = BRDT(2) (Homo sapiens, UniProt Q58F21); test: BromoScan selectivity panel (Kd); assay type: binding
BRD2(2) = biological target: T4, BRD2(2) (Homo sapiens, UniProt P25440); test: BromoScan selectivity panel (Kd); assay type: binding
T4 construct: the bromodomain-containing protein is BRD2(2)

WDR9(2) = biological target: T5, WDR9(2) (Homo sapiens, UniProt Q9NSI6); test: BromoScan selectivity panel (Kd); assay type: binding
T5 construct: WDR9(2)

BRPF1 = biological target: T6, BRPF1 (Homo sapiens, UniProt P55201); test: BromoScan selectivity panel (Kd); assay type: binding
T6 sequence (P55201 626-740 limits assumed): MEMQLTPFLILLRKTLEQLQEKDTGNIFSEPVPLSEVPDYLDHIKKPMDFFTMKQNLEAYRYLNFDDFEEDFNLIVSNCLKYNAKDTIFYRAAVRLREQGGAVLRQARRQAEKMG

BAZ2B = biological target: T7, BAZ2B (Homo sapiens, UniProt Q9UIF8); test: BromoScan selectivity panel (Kd); assay type: binding
T7 sequence (Q9UIF8 2054-2168 limits assumed): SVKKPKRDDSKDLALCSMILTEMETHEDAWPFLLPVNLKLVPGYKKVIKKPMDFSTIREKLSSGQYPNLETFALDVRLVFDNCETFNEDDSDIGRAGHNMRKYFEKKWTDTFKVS

BRPF3 = biological target: T8, BRPF3 (Homo sapiens, UniProt Q9ULD4); test: BromoScan selectivity panel (Kd); assay type: binding
T8 sequence (Q9ULD4 589-693 limits assumed): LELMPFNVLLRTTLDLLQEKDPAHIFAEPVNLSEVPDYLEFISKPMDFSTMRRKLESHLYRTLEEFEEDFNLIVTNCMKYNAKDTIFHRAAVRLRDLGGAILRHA

T2 sequence (P25440 74-180 limits assumed): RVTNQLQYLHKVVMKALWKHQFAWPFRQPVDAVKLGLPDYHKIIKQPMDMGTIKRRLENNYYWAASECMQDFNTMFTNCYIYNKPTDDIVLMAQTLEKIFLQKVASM
T3 sequence (Q86U86 177-287 limits assumed): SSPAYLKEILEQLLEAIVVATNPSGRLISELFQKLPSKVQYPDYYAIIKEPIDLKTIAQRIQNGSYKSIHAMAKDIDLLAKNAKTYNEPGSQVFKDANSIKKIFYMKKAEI
T4 sequence (P25440 344-453 limits assumed): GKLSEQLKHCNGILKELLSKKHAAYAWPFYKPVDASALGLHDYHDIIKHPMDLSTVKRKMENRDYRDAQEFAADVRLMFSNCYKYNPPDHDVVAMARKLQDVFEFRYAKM
T5 sequence (Q9NSI6 1313-1418 limits assumed): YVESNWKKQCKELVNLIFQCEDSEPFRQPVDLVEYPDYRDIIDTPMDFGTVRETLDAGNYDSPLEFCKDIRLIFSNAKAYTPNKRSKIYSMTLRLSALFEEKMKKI

In the case of `Cc1noc(C)c1-c1ccc(-c2nc3cnccn3c2NC(C)(C)C)cc1` [UMB32, N-(tert-butyl)-2-(4-(3,5-dimethylisoxazol-4-yl)phenyl)imidazo[1,2-a]pyrazin-3-amine], the IC50 (BRD4; BRD4 IC50 (μM), Table 3) is reported as 0.26 µM, the IC50 (BRD4; IC50 (M), Table 1, in vitro, inhibiting the activity of BRD4) is reported as 0.256 µM and the “inhibition of the activity of BRD4 in vitro” value (BRD4; text b614, b618) is reported as “active in inhibiting the activity of BRD4 in vitro”. The Kd (TRIM33(PHD Bromo.); Table 8, read-out: Kd (nM) TRIM33(PHD Bromo.)) was at least 40000 nM, the Kd (TRIM33(PHD Bromo.); Table 9, read-out: BromoScan Kd, nM TRIM33(PHD, Bromo.)) was at least 40000 nM and the Kd (FALZ; Table 8, read-out: Kd (nM) FALZ) was at least 40000 nM. For the same compound, the Kd (FALZ; Table 9, read-out: BromoScan Kd, nM FALZ) was at least 40000 nM, the Kd (BRD2(1); Table 8, read-out: Kd (nM) BRD2(1)) was 94 nM and the Kd (BRD2(1); Table 9, read-out: BromoScan Kd, nM BRD2(1)) was 94 nM. The Kd (PERM1(2); Table 8, read-out: Kd (nM) PERM1(2)) was at least 40000 nM, the Kd (PERM1(2); Table 9, read-out: BromoScan Kd, nM PERM1(2)) was at least 40000 nM and the Kd (BRDT(2); Table 8, read-out: Kd (nM) BRDT(2)) was 75 nM. For the same compound, the Kd (BRDT(2); Table 9, read-out: BromoScan Kd, nM BRDT(2)) was 75 nM, the Kd (BRD2(2); Table 8, read-out: Kd (nM) BRD2(2)) was 95 nM and the Kd (BRD2(2); Table 9, read-out: BromoScan Kd, nM BRD2(2)) was 95 nM. The Kd (WDR9(2); Table 8, read-out: Kd (nM) WDR9(2)) was at least 40000 nM, the Kd (WDR9(2); Table 9, read-out: BromoScan Kd, nM WDR9(2)) was at least 40000 nM and the Kd (BRPF1; Table 8, read-out: Kd (nM) BRPF1) was at least 40000 nM. The Kd (BRPF1; Table 9, read-out: BromoScan Kd, nM BRPF1) was at least 40000 nM, the Kd (BAZ2B; Table 8, read-out: Kd (nM) BAZ2B) was at least 40000 nM and the Kd (BAZ2B; Table 9, read-out: BromoScan Kd, nM BAZ2B) was at least 40000 nM. For the same compound, the Kd (BRPF3; Table 8, read-out: Kd (nM) BRPF3) was at least 40000 nM and the Kd (BRPF3; Table 9, read-out: BromoScan Kd, nM BRDF3) was at least 40000 nM.
